Each structure is given as a SMILES string. Where two headings read alike, the source gives them in different places.

The target of experiment [1] is T1, human V1a receptor (Homo sapiens, UniProt P37288).
T1 construct: expressed in transfected cells; host or cells: CHO K1 (ATCC), also stably transfected with a modified aequorin
Put plainly: Cellular in vitro assay for determining vasopressin receptor activity, V1a receptor cell line (CHO, aequorin luminescence). It is filed as cell-based. The conditions noted are these: for IC50: CHO cell line transfected with human V1a receptor, [Arg]-vasopressin at EC50 concentration, read-out: IC50 hV1a; for ratio IC50 hV2/hV1a: selectivity ratio IC50 hV2 / IC50 hV1a. In short, it runs like this: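 Cells were plated the day before in medium containing 5 μg/ml coelenterazine and kept at 37° C. Compounds at various concentrations were then added for 10 minutes. Next, [Arg]-vasopressin at EC50 was applied and light output recorded at once, yielding IC50.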

Experiment [2] deals with T2, human V2 receptor (Homo sapiens, UniProt P30518).
T2 construct: expressed in transfected cells; host or cells: CHO K1 (ATCC) expressing firefly luciferase under a CRE-responsive promoter
Put plainly: Cellular in vitro assay for determining vasopressin receptor activity, V2 receptor cell line (CHO, CRE-luciferase). Type of experiment: cell-based. The conditions noted are these: CHO cell line transfected with human V2 receptor, [Arg8]-vasopressin at EC50 concentration, read-out: IC50 hV2.

T1 sequence (P37288 whole entry): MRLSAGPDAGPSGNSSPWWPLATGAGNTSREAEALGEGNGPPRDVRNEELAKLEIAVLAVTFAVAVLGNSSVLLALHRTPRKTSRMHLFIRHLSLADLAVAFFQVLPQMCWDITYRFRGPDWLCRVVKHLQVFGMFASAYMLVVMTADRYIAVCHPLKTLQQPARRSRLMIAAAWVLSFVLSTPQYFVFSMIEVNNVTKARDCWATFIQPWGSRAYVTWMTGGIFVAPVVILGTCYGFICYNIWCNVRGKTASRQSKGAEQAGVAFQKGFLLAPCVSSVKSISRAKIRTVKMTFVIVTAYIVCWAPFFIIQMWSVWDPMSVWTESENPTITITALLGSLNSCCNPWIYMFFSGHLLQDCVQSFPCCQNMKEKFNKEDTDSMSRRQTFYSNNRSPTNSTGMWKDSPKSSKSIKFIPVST
T2 sequence (P30518 whole entry): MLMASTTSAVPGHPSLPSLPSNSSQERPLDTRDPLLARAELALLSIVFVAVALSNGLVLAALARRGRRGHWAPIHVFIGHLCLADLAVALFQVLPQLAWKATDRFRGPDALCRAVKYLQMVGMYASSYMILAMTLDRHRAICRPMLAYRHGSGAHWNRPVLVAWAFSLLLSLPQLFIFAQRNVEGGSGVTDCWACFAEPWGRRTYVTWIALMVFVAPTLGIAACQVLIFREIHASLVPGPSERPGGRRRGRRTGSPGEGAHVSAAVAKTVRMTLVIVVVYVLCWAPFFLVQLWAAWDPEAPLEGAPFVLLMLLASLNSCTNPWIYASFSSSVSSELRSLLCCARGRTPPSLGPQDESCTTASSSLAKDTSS

As usually defined, the IC50 is the concentration that gives 50% inhibition. As for `O=C(N[C@H]1C[C@H]1F)c1ncccc1-n1cnc(Cn2nc(-c3ccc(Cl)cc3)n(C[C@H](O)C(F)(F)F)c2=O)n1` (racemic) [Example 435, 3-[3-({3-(4-Chlorophenyl)-5-oxo-4-[(2S)-3,3,3-trifluoro-2-hydroxypropyl]-4,5-dihydro-1H-1,2,4-triazol-1-yl}methyl)-1H-1,2,4-triazol-1-yl]-N-[2-fluorocyclopropyl]pyridine-2-carboxamide], in experiment [1], the IC50 worked out at 24.5 nM and the “ratio IC50 hV2/hV1a” value was found to be 43.5. The IC50 in experiment [2] came out at 1060 nM.
Regarding `O=C(N[C@H]1C[C@H]1F)c1ncccc1-n1cnc(Cn2nc(-c3ccc(Cl)cc3)n(C[C@H](O)C(F)(F)F)c2=O)n1` (racemic) [Example 456, 3-[3-({3-(4-Chlorophenyl)-5-oxo-4-[(2S)-3,3,3-trifluoro-2-hydroxypropyl]-4,5-dihydro-1H-1,2,4-triazol-1-yl}methyl)-1H-1,2,4-triazol-1-yl]-N-[2-fluorocyclopropyl]pyridine-2-carboxamide], in experiment [1], the IC50 amounted to 12 nM and the “ratio IC50 hV2/hV1a” value worked out at 65.4. For the same molecule, in experiment [2], the half-inhibitory concentration (IC50) was determined as 785 nM.
For `O=C(N[C@H]1C[C@H]1F)c1cccnc1-n1cnc(Cn2nc(-c3ccc(Cl)cc3)n(C[C@H](O)C(F)(F)F)c2=O)n1` (racemic) [Example 504, 2-[3-({3-(4-Chlorophenyl)-5-oxo-4-[(2S)-3,3,3-trifluoro-2-hydroxypropyl]-4,5-dihydro-1H-1,2,4-triazol-1-yl}methyl)-1H-1,2,4-triazol-1-yl]-N-[2-fluorocyclopropyl]pyridine-3-carboxamide], in experiment [1], the IC50 was determined as 3.1 nM and the “ratio IC50 hV2/hV1a” value was determined as 50.0. Besides, the IC50 in experiment [2] was found to be 155 nM.
In the case of `O=C1CN(c2nc(Cn3nc(-c4ccc(Cl)cc4)n(C[C@H](O)C(F)(F)F)c3=O)nn2-c2cccnc2C(=O)N[C@H]2C[C@@H]2F)CCN1` (racemic) [Example 507, 3-[3-({3-(4-Chlorophenyl)-5-oxo-4-[(2S)-3,3,3-trifluoro-2-hydroxypropyl]-4,5-dihydro-1H-1,2,4-triazol-1-yl}methyl)-5-(3-oxopiperazin-1-yl)-1H-1,2,4-triazol-1-yl]-N-[2-fluorocyclopropyl]pyridine-2-carboxamide], the IC50 is 4500 nM in experiment [1] and 32000 nM in experiment [2]. Also, the “ratio IC50 hV2/hV1a” value in experiment [1] was 7.1.
In the case of `O=C1CN(c2nc(Cn3nc(-c4ccc(Cl)cc4)n(C[C@H](O)C(F)(F)F)c3=O)nn2-c2cccnc2C(=O)N[C@@H]2C[C@@H]2F)CCN1` (racemic) [Example 508, 3-[3-({3-(4-Chlorophenyl)-5-oxo-4-[(2S)-3,3,3-trifluoro-2-hydroxypropyl]-4,5-dihydro-1H-1,2,4-triazol-1-yl}methyl)-5-(3-oxopiperazin-1-yl)-1H-1,2,4-triazol-1-yl]-N-[2-fluorocyclopropyl]pyridine-2-carboxamide], in experiment [1], the IC50 was 5150 nM and the “ratio IC50 hV2/hV1a” value turned out to be 4.6. In addition, the IC50 in experiment [2] stood at 23500 nM.
In the case of `O=C1CN(C(=O)c2nc(Cn3nc(-c4ccc(Cl)cc4)n(C[C@H](O)C(F)(F)F)c3=O)nn2-c2cnccc2C(=O)N[C@H]2C[C@H]2F)CCN1` (racemic) [Example 517, 3-{3-({3-(4-Chlorophenyl)-5-oxo-4-[(2S)-3,3,3-trifluoro-2-hydroxypropyl]-4,5-dihydro-1H-1,2,4-triazol-1-yl}methyl)-5-[(3-oxopiperazin-1-yl)carbonyl]-1H-1,2,4-triazol-1-yl}-N-[2-fluorocyclopropyl]pyridine-4-carboxamide], in experiment [1], the IC50 worked out at 490 nM and the “ratio IC50 hV2/hV1a” value is recorded as 3.8. Besides, in experiment [2], the IC50 was determined as 1840 nM.
For `O=C(N[C@H]1C[C@H]1F)c1ccncc1-n1nc(Cn2nc(-c3ccc(Cl)cc3)n(C[C@H](O)C(F)(F)F)c2=O)nc1C(=O)N1CCS(=O)(=O)CC1` (racemic) [Example 523, 3-{3-({3-(4-Chlorophenyl)-5-oxo-4-[(2S)-3,3,3-trifluoro-2-hydroxypropyl]-4,5-dihydro-1H-1,2,4-triazol-1-yl}methyl)-5-[(1,1-dioxidothiomorpholin-4-yl)carbonyl]-1H-1,2,4-triazol-1-yl}-N-[2-fluorocyclopropyl]pyridine-4-carboxamide], in experiment [1], the IC50 turned out to be 365 nM and the “ratio IC50 hV2/hV1a” value stood at 3.0. Also, the IC50 in experiment [2] is 1100 nM.
For `O=C1CN(C(=O)c2nc(Cn3nc(-c4ccc(Cl)cc4)n(C[C@H](O)C(F)(F)F)c3=O)nn2-c2ncccc2C(=O)N[C@H]2C[C@H]2F)CCN1` (racemic) [Example 527, 2-{3-({3-(4-chlorophenyl)-5-oxo-4-[(2S)-3,3,3-trifluoro-2-hydroxypropyl]-4,5-dihydro-1H-1,2,4-triazol-1-yl}methyl)-5-[(3-oxopiperazin-1-yl)carbonyl]-1H-1,2,4-triazol-1-yl}-N-[2-fluorocyclopropyl]pyridine-3-carboxamide] the same measures were 1080 nM, 1.4 and 1530 nM.
The corresponding values for `O=C(N[C@H]1C[C@H]1F)c1cccnc1-n1nc(Cn2nc(-c3ccc(Cl)cc3)n(C[C@H](O)C(F)(F)F)c2=O)nc1C(=O)N1CCS(=O)(=O)CC1` (racemic) [Example 533, 2-{3-({3-(4-Chlorophenyl)-5-oxo-4-[(2S)-3,3,3-trifluoro-2-hydroxypropyl]-4,5-dihydro-1H-1,2,4-triazol-1-yl}methyl)-5-[(1,1-dioxidothiomorpholin-4-yl)carbonyl]-1H-1,2,4-triazol-1-yl}-N-[2-fluorocyclopropyl]pyridine-3-carboxamide] are 146 nM, 21.8 and 3180 nM.
For `CC(C)(N)CNC(=O)c1nc(Cn2nc(-c3ccc(Cl)cc3)n(C[C@H](O)C(F)(F)F)c2=O)nn1-c1cnccc1C(=O)N[C@H]1C[C@H]1F` (racemic) [Example 535, 3-{5-[(2-amino-2-methylpropyl)carbamoyl]-3-({3-(4-chlorophenyl)-5-oxo-4-[(2S)-3,3,3-trifluoro-2-hydroxypropyl]-4,5-dihydro-1H-1,2,4-triazol-1-yl}methyl)-1H-1,2,4-triazol-1-yl}-N-[2-fluorocyclopropyl]pyridine-4-carboxamide], the results for the IC50 in experiment [1] and in experiment [2] were 82.5 nM and 4620 nM, respectively. Moreover, in experiment [1], the “ratio IC50 hV2/hV1a” value was 56.0.
For `O=C(Nc1ccncc1-n1cnc(Cn2nc(-c3ccc(Cl)cc3)n(C[C@H](O)C(F)(F)F)c2=O)n1)[C@@H]1C[C@@H]1F` (single isomer, unassigned) [Example 35], in experiment [1], the IC50 came out at 10.5 nM and the “ratio IC50 hV2/hV1a” value is 52.7. The IC50 in experiment [2] (3 hours) is 553 nM.
As to `O=C(Nc1cccnc1-n1cnc(Cn2nc(-c3ccc(Cl)cc3)n(C[C@H](O)C(F)(F)F)c2=O)n1)C1CC1(F)F` (single isomer, unassigned) [Example 42], in experiment [1], the concentration for half-maximal inhibition (IC50) worked out at 23 nM and the “ratio IC50 hV2/hV1a” value was 27.0. Also, the IC50 in experiment [2] (3 hours) came to 620 nM.
As to `O=C(Nc1cccnc1-n1cnc(Cn2nc(-c3ccc(Cl)cc3)n(C[C@H](O)C(F)(F)F)c2=O)n1)C1CC1(F)F` (single isomer, unassigned) [Example 43], in experiment [1], the IC50 is 5.85 nM and the “ratio IC50 hV2/hV1a” value turned out to be 36.5. In addition, the IC50 in experiment [2] (3 hours) worked out at 213 nM.
Consider `O=C(Nc1cccnc1-n1cnc(Cn2nc(-c3ccc(Cl)cc3)n(C[C@H](O)C(F)(F)F)c2=O)n1)C1CCS(=O)(=O)C1` (single isomer, unassigned) [Example 51], for which the IC50 turned out to be 5 nM in experiment [1] and 765 nM in experiment [2] (3 hours). The “ratio IC50 hV2/hV1a” value in experiment [1] came to 153.0.
As to `O=C(Nc1cccnc1-n1cnc(Cn2nc(-c3ccc(Cl)cc3)n(C[C@H](O)C(F)(F)F)c2=O)n1)C1CCS(=O)(=O)C1` (single isomer, unassigned) [Example 52], in experiment [1], the IC50 is 11.5 nM and the “ratio IC50 hV2/hV1a” value came out at 173.9. Further, in experiment [2] (3 hours), the IC50 was found to be 2000 nM.
As for `O=C(Nc1cccnc1-n1cnc(Cn2nc(-c3ccc(Cl)cc3)n(C[C@H](O)C(F)(F)F)c2=O)n1)C1CC1F` (single isomer, unassigned) [Example 55], in experiment [1], the IC50 is 3.65 nM and the “ratio IC50 hV2/hV1a” value is 190.4. Further, the IC50 in experiment [2] (3 hours) is 695 nM.
Regarding `O=C(Nc1cccnc1-n1cnc(Cn2nc(-c3ccc(Cl)cc3)n(C[C@H](O)C(F)(F)F)c2=O)n1)C1CC1F` (single isomer, unassigned) [Example 56], in experiment [1], the IC50 came to 4.4 nM and the “ratio IC50 hV2/hV1a” value amounted to 92.0. For the same molecule, in experiment [2] (3 hours), the concentration for half-maximal inhibition (IC50) amounted to 405 nM.
Regarding `O=C(Nc1cccnc1-n1cnc(Cn2nc(-c3ccc(Cl)cc3)n(C[C@H](O)C(F)(F)F)c2=O)n1)C1CC1F` (single isomer, unassigned) [Example 60], in experiment [1], the IC50 was found to be 4.25 nM and the “ratio IC50 hV2/hV1a” value was 208.2. The half-maximal inhibitory concentration (IC50) in experiment [2] (3 hours) was determined as 885 nM.
Regarding `O=C(Nc1cccnc1-n1cnc(Cn2nc(-c3ccc(Cl)cc3)n(C[C@H](O)C(F)(F)F)c2=O)n1)C1CC1F` (single isomer, unassigned) [Example 61], in experiment [1], the IC50 was determined as 4.35 nM and the “ratio IC50 hV2/hV1a” value turned out to be 111.5. Moreover, the IC50 in experiment [2] (3 hours) stood at 485 nM.
With `O=C(Nc1ncccc1-n1cnc(Cn2nc(-c3ccc(Cl)cc3)n(C[C@H](O)C(F)(F)F)c2=O)n1)C1CC1F` (single isomer, unassigned) [Example 77], in experiment [1], the IC50 stood at 12 nM and the “ratio IC50 hV2/hV1a” value is on record as 195.8. Also, in experiment [2] (3 hours), the IC50 came to 2350 nM.
As for `O=C(Nc1ncccc1-n1cnc(Cn2nc(-c3ccc(Cl)cc3)n(C[C@H](O)C(F)(F)F)c2=O)n1)C1CC1F` (single isomer, unassigned) [Example 78], in experiment [1], the IC50 was determined as 19.5 nM and the “ratio IC50 hV2/hV1a” value is given as 187.2. Further, the half-inhibitory concentration (IC50) in experiment [2] (3 hours) turned out to be 3650 nM.

The record behind these values is US11173151B2, “Substituted triazole derivatives and uses thereof” (BAYER AKTIENGESELLSCHAFT, priority 2017, dated 2021).
